Data: ChEMBL document CHEMBL1145073, “DNA binding ligands targeting drug-resistant bacteria: structure, activity, and pharmacology” (J Med Chem, 2003)
In brackets after ≈: the same amount, converted by molar mass.

What was measured:
Type in all cases: functional
[1] = tested on: Enterococcus faecalis; assay: In vitro antimicrobial activity against vancomycin-susceptible Enterococcus faecalis 29212
[2] = tested on: Staphylococcus aureus; assay: In vitro antimicrobial activity against methicillin resistant Staphylococcus aureus 27660
[3] = In vitro antimicrobial activity against penicillin-intermediate Streptococcus pneumoniae 49619

| MIC [1] [µg/mL] | MIC [3] [µg/mL] | SMILES | MIC [2] [µg/mL] |
| --- | --- | --- | --- |
| 8 (≈ 12.5 µM) | 0.5 (≈ 0.779 µM) | Cn1cc(NC(=O)c2cc(NC(=O)c3cc(NC(=O)c4cn5cccnc5n4)cn3C)cn2C)cc1C(=O)NCCN1CCOCC1 |  |
| 8 (≈ 12 µM) | 0.5 (≈ 0.752 µM) | COc1cc(Cl)ccc1C(=O)Nc1cc(C(=O)Nc2cc(C(=O)Nc3cc(C(=O)NCCN4CCOCC4)n(C)c3)n(C)c2)n(C)c1 |  |
| 1 (≈ 1.52 µM) | 0.125 (≈ 0.19 µM) | Cn1cc(NC(=O)c2cc(NC(=O)c3cc(NC(=O)c4nsc5ccccc45)cn3C)cn2C)cc1C(=O)NCCN1CCOCC1 |  |
| 32 (≈ 53.3 µM) | 16 (≈ 26.6 µM) | Cn1cc(NC(=O)c2cc(NC(=O)c3cc(NC(=O)c4ccccc4)cn3C)cn2C)cc1C(=O)NCCN1CCOCC1 |  |
| 32 (≈ 49.1 µM) | 1 (≈ 1.53 µM) | Cn1cc(NC(=O)c2cc(NC(=O)c3cc(NC(=O)c4ccc5ccccc5n4)cn3C)cn2C)cc1C(=O)NCCN1CCOCC1 |  |
| 32 (≈ 48.9 µM) | 8 (≈ 12.2 µM) | Cn1cc(NC(=O)c2cc(NC(=O)c3cc(NC(=O)c4cc5ccccc5n4C)cn3C)cn2C)cc1C(=O)NCCN1CCOCC1 |  |
| 16 (≈ 21.9 µM) | 0.125 (≈ 0.171 µM) | Cn1cc(NC(=O)c2cc(NC(=O)c3cc(NC(=O)c4sc5cc(Cl)sc5c4Cl)cn3C)cn2C)cc1C(=O)NCCN1CCOCC1 |  |
| > 32 | 8 (≈ 13.5 µM) | Cn1cc(NC(=O)c2cc(NC(=O)c3cc(NC(=O)c4ccoc4)cn3C)cn2C)cc1C(=O)NCCN1CCOCC1 |  |
| 16 (≈ 23.9 µM) | 0.5 (≈ 0.748 µM) | Cn1cc(NC(=O)c2cc(NC(=O)c3cc(NC(=O)c4cc5ccccc5oc4=O)cn3C)cn2C)cc1C(=O)NCCN1CCOCC1 |  |
| 8 (≈ 11 µM) | 0.5 (≈ 0.688 µM) | Cn1cc(NC(=O)c2cc(NC(=O)c3cc(NC(=O)c4sc5cc(F)c(F)cc5c4Cl)cn3C)cn2C)cc1C(=O)NCCN1CCOCC1 |  |
| 2 (≈ 3.12 µM) | 0.031 (≈ 0.0484 µM) | Cn1cc(NC(=O)c2cc(NC(=O)c3cc(NC(=O)c4cn5ccccc5n4)cn3C)cn2C)cc1C(=O)NCCN1CCOCC1 |  |
| 4 (≈ 6 µM) | 0.062 (≈ 0.093 µM) | Cn1cc(NC(=O)c2cc(NC(=O)c3cc(NC(=O)c4ccc(OC(F)F)cc4)cn3C)cn2C)cc1C(=O)NCCN1CCOCC1 |  |
| 32 (≈ 48.7 µM) | 1 (≈ 1.52 µM) | Cn1cc(NC(=O)c2cc(NC(=O)c3cc(NC(=O)c4cc5ccccc5s4)cn3C)cn2C)cc1C(=O)NCCN1CCOCC1 |  |
| > 32 | 2 (≈ 2.92 µM) | Cn1cc(NC(=O)c2cc(NC(=O)c3cc(NC(=O)c4csc(-c5cccnc5)n4)cn3C)cn2C)cc1C(=O)NCCN1CCOCC1 |  |
| 8 (≈ 10.5 µM) | 4 (≈ 5.27 µM) | Cn1cc(NC(=O)c2cc(NC(=O)c3cc(NC(=O)c4sc5cc(C(F)(F)F)ccc5c4Cl)cn3C)cn2C)cc1C(=O)NCCN1CCOCC1 |  |
| > 32 | 2 (≈ 2.89 µM) | Cn1cc(NC(=O)c2cc(NC(=O)c3cc(NC(=O)c4cc5cccc(Cl)c5s4)cn3C)cn2C)cc1C(=O)NCCN1CCOCC1 |  |
| > 32 | 0.125 (≈ 0.198 µM) | COc1ccc(C(=O)Nc2cc(C(=O)Nc3cc(C(=O)Nc4cc(C(=O)NCCN5CCOCC5)n(C)c4)n(C)c3)n(C)c2)cc1 |  |
| > 32 | 1 (≈ 1.46 µM) | Cn1cc(NC(=O)c2cc(NC(=O)c3cc(NC(=O)c4ccc(OC(F)(F)F)cc4)cn3C)cn2C)cc1C(=O)NCCN1CCOCC1 |  |
| 16 (≈ 24.8 µM) | 2 (≈ 3.1 µM) | Cn1cc(NC(=O)c2cc(NC(=O)c3cc(NC(=O)c4ccc5c(c4)OCO5)cn3C)cn2C)cc1C(=O)NCCN1CCOCC1 |  |
| > 32 | > 32 | Cn1cc(NC(=O)c2cc(NC(=O)c3cc(NC(=O)c4ccccn4)cn3C)cn2C)cc1C(=O)NCCN1CCOCC1 |  |
| > 32 | > 32 | Cn1cc(NC(=O)c2cc(NC(=O)c3cc(NC(=O)c4cnc5ccccc5n4)cn3C)cn2C)cc1C(=O)NCCN1CCOCC1 |  |
| > 32 | 2 (≈ 3.06 µM) | Cn1cc(NC(=O)c2cc(NC(=O)c3cc(NC(=O)c4ccc5cccnc5n4)cn3C)cn2C)cc1C(=O)NCCN1CCOCC1 |  |
| > 32 | 16 (≈ 24.6 µM) | Cn1cc(NC(=O)c2cc(NC(=O)c3cc(NC(=O)c4cnc5ccccc5c4)cn3C)cn2C)cc1C(=O)NCCN1CCOCC1 |  |
| > 32 | 4 (≈ 6.65 µM) | Cn1cc(NC(=O)c2cc(NC(=O)c3cc(NC(=O)c4cccnc4)cn3C)cn2C)cc1C(=O)NCCN1CCOCC1 |  |
| > 32 | > 32 | Cc1nc2ccncc2cc1C(=O)Nc1cc(C(=O)Nc2cc(C(=O)Nc3cc(C(=O)NCCN4CCOCC4)n(C)c3)n(C)c2)n(C)c1 |  |
| 32 (≈ 44.1 µM) | 0.25 (≈ 0.345 µM) | Cn1cc(NC(=O)c2cc(NC(=O)c3cc(NC(=O)c4sc5cc(Cl)ccc5c4Cl)cn3C)cn2C)cc1C(=O)NCCN1CCOCC1 |  |
| > 32 | 32 (≈ 53 µM) | Cn1cc(NC(=O)c2cc(NC(=O)c3cc(NC(=O)c4cccn4C)cn3C)cn2C)cc1C(=O)NCCN1CCOCC1 |  |
| > 32 | 2 (≈ 2.79 µM) | Cn1cc(NC(=O)c2cc(NC(=O)c3cc(NC(=O)c4sc(-c5ccccc5)cc4Cl)cn3C)cn2C)cc1C(=O)NCCN1CCOCC1 |  |
| 16 (≈ 26.4 µM) | 2 (≈ 3.3 µM) | Cn1cc(NC(=O)c2cc(NC(=O)c3cc(NC(=O)c4cccs4)cn3C)cn2C)cc1C(=O)NCCN1CCOCC1 |  |
| 4 (≈ 6.13 µM) | 0.25 (≈ 0.383 µM) | Cn1cc(NC(=O)c2cc(NC(=O)c3cc(NC(=O)c4ccc5cnccc5n4)cn3C)cn2C)cc1C(=O)NCCN1CCOCC1 |  |

| SMILES | MIC [1] [µg/mL] | MIC [3] [µg/mL] | MIC [2] [µg/mL] |
| --- | --- | --- | --- |
| Cn1cc(NC(=O)c2cc(NC(=O)c3cc(-c4sc(Cl)c(Cl)c4Cl)cn3C)cn2C)cc1C(=O)NCCN1CCOCC1 | > 32 | 8 (≈ 12 µM) | 16 (≈ 24 µM) |
| Cn1cc(NC(=O)c2cc(NC(=O)c3cc(NC(=O)c4cc5ccccc5cn4)cn3C)cn2C)cc1C(=O)NCCN1CCNCC1 | > 32 | > 32 | 16 (≈ 24.6 µM) |
| Cn1cc(NC(=O)c2cc(NC(=O)c3cc(-c4ccncc4)cn3C)cn2C)cc1C(=O)NCCN1CCOCC1 | 32 (≈ 57.3 µM) | 2 (≈ 3.58 µM) | > 32 |
| Cc1nnsc1-c1cc(C(=O)Nc2cc(C(=O)Nc3cc(C(=O)NCCN4CCOCC4)n(C)c3)n(C)c2)n(C)c1 | 8 (≈ 13.8 µM) | 2 (≈ 3.45 µM) | 16 (≈ 27.6 µM) |
| Cn1cc(NC(=O)c2cc(NC(=O)c3cc(NC(=O)c4cc5ccccc5cn4)cn3C)cn2C)cc1C(=O)NCCCN1CCOCC1 | 2 (≈ 3 µM) | 2 (≈ 3 µM) | 2 (≈ 3 µM) |
| CSc1ccsc1-c1cc(C(=O)Nc2cc(C(=O)Nc3cc(C(=O)NCCN4CCOCC4)n(C)c3)n(C)c2)n(C)c1 | 8 (≈ 13.1 µM) | 0.125 (≈ 0.205 µM) | 4 (≈ 6.56 µM) |
| Cn1cc(NC(=O)c2cc(NC(=O)c3cc(-c4ccc(Cl)s4)cn3C)cn2C)cc1C(=O)NCCN1CCOCC1 | 2 (≈ 3.34 µM) | 2 (≈ 3.34 µM) | 4 (≈ 6.69 µM) |
| Cn1cc(NC(=O)c2cc(NC(=O)c3cc(NC(=O)c4cc5ccccc5cn4)cn3C)cn2C)cc1C(=O)NCCCN1CCCCC1 | 4 (≈ 6.03 µM) | 0.25 (≈ 0.377 µM) | 4 (≈ 6.03 µM) |
| Cn1cc(NC(=O)c2cc(NC(=O)c3cc(-c4sccc4O)cn3C)cn2C)cc1C(=O)NCCN1CCOCC1 | > 32 | > 32 | > 32 |
| Cn1cc(NC(=O)c2cc(NC(=O)c3cc(-c4ccc5nonc5c4)cn3C)cn2C)cc1C(=O)NCCN1CCOCC1 | 8 (≈ 13.3 µM) | 8 (≈ 13.3 µM) | 8 (≈ 13.3 µM) |
| Cn1cc(NC(=O)c2cc(NC(=O)c3cc(-c4sccc4C#N)cn3C)cn2C)cc1C(=O)NCCN1CCOCC1 | 2 (≈ 3.4 µM) | 0.5 (≈ 0.849 µM) | 4 (≈ 6.79 µM) |
| Cc1ccsc1-c1cc(C(=O)Nc2cc(C(=O)Nc3cc(C(=O)NCCN4CCOCC4)n(C)c3)n(C)c2)n(C)c1 | 16 (≈ 27.7 µM) | 4 (≈ 6.92 µM) | 16 (≈ 27.7 µM) |
| Cn1cc(NC(=O)c2cc(NC(=O)c3cc(NC(=O)c4sccc4Cl)cn3C)cn2C)cc1C(=O)NCc1ccccn1 | 4 (≈ 6.46 µM) | 1 (≈ 1.62 µM) | > 32 |
| Cn1cc(NC(=O)c2cc(NC(=O)c3cc(-c4ccc5nsnc5c4)cn3C)cn2C)cc1C(=O)NCCN1CCOCC1 | 1 (≈ 1.62 µM) | 0.5 (≈ 0.812 µM) | 8 (≈ 13 µM) |
| Cn1cc(NC(=O)c2cc(NC(=O)c3cc(-c4csnn4)cn3C)cn2C)cc1C(=O)NCCN1CCOCC1 | 4 (≈ 7.07 µM) | 1 (≈ 1.77 µM) | 32 (≈ 56.6 µM) |
| Cn1cc(NC(=O)c2cc(NC(=O)c3cc(-c4ccc5ccccc5c4)cn3C)cn2C)cc1C(=O)NCCN1CCOCC1 | 4 (≈ 6.58 µM) | 4 (≈ 6.58 µM) | 8 (≈ 13.2 µM) |
| Cn1cc(NC(=O)c2cc(NC(=O)c3cc(-c4cc5ccccc5o4)cn3C)cn2C)cc1C(=O)NCCN1CCOCC1 | 4 (≈ 6.69 µM) | 0.5 (≈ 0.837 µM) | 2 (≈ 3.35 µM) |
| CN1CCN(NC(=O)c2cc(NC(=O)c3cc(NC(=O)c4cc(NC(=O)c5cc6ccccc6cn5)cn4C)cn3C)cn2C)CC1 | 16 (≈ 25.1 µM) | 16 (≈ 25.1 µM) | 16 (≈ 25.1 µM) |
| CC(C)S(=O)(=O)c1csc(-c2cc(C(=O)Nc3cc(C(=O)Nc4cc(C(=O)NCCN5CCOCC5)n(C)c4)n(C)c3)n(C)c2)c1Cl | 4 (≈ 5.68 µM) | 1 (≈ 1.42 µM) | 4 (≈ 5.68 µM) |
| Cn1cc(NC(=O)c2cc(NC(=O)c3cc(-c4ccc5[nH]cnc5c4)cn3C)cn2C)cc1C(=O)NCCN1CCOCC1 | > 32 | > 8 | > 32 |
| Cn1cc(NC(=O)c2cc(NC(=O)c3cc(NC(=O)c4cc5ccccc5cn4)cn3C)cn2C)cc1C(=O)NCCN1CCCC1 | 2 (≈ 3.15 µM) | 0.062 (≈ 0.0975 µM) | 0.5 (≈ 0.786 µM) |
| CCCCc1ccc(-c2cc(C(=O)Nc3cc(C(=O)Nc4cc(C(=O)NCCN5CCOCC5)n(C)c4)n(C)c3)n(C)c2)nc1 | 32 (≈ 52.1 µM) | 2 (≈ 3.25 µM) | 8 (≈ 13 µM) |
| Cc1c(-c2cc(C(=O)Nc3cc(C(=O)Nc4cc(C(=O)NCCN5CCOCC5)n(C)c4)n(C)c3)n(C)c2)oc2ccccc12 | 16 (≈ 26.2 µM) | 2 (≈ 3.27 µM) | 8 (≈ 13.1 µM) |
| Cn1cc(NC(=O)c2cc(NC(=O)c3cc(-c4cnc(O)c(Cl)c4)cn3C)cn2C)cc1C(=O)NCCN1CCOCC1 | > 32 | 0.5 (≈ 0.821 µM) | 8 (≈ 13.1 µM) |
| CN(C)CCCNC(=O)c1cc(NC(=O)c2cc(NC(=O)c3cc(NC(=O)c4cc5ccccc5cn4)cn3C)cn2C)cn1C | 4 (≈ 6.41 µM) | 1 (≈ 1.6 µM) | 4 (≈ 6.41 µM) |
| CN1CCN(CCNC(=O)c2cc(NC(=O)c3cc(NC(=O)c4cc(NC(=O)c5sccc5Cl)cn4C)cn3C)cn2C)CC1 | 32 (≈ 48.9 µM) | 2 (≈ 3.06 µM) | 4 (≈ 6.11 µM) |
| Cn1cc(NC(=O)c2cc(NC(=O)c3cc(-c4ccco4)cn3C)cn2C)cc1C(=O)NCCN1CCOCC1 | 32 (≈ 58.4 µM) | 1 (≈ 1.83 µM) | 32 (≈ 58.4 µM) |
| Cn1cc(NC(=O)c2cc(NC(=O)c3cc(-c4ccccc4F)cn3C)cn2C)cc1C(=O)NCCN1CCOCC1 | 0.5 (≈ 0.869 µM) | 1 (≈ 1.74 µM) | 8 (≈ 13.9 µM) |
